Where two headings read alike, the source gives them in different places.
System: Fusarium graminearum
Format: cell-based
Settings: enzyme disk 119 nM where (+) enzyme, 5 days

Substance: mancozeb
- Reduction in F. graminearum growth relative to non-treated controls (Mancozeb 0.5 mg/l): 6% cd
- Reduction in F. graminearum growth relative to non-treated controls (Mancozeb 2 mg/l): 1% d
- Reduction in F. graminearum growth relative to non-treated controls (Mancozeb 5 mg/l): 17% cd
- Reduction in F. graminearum growth relative to non-treated controls (Mancozeb 10 mg/l): 26% bcd

Reference: patent US10993436B2 (priority 2016, dated 2021)
